Laboratory results published in patent US6946458B2, “N-thiolated beta-lactams: novel antibacterial agents for methicillin-resistant Staphylococcus aureus” (University of South Florida, priority 1999, dated 2005).
Where two headings read alike, the source gives them in different places.

Key:
MRSA USF652 = experiment: Kirby-Bauer agar disk diffusion; assay type: cell-based, Staphylococcus aureus; set-up: Kirby-Bauer Disc Diffusion Test Results: unit not given here; details: for zone of inhibition at 20 µg/disc: Staphylococcus aureus, MRSA
In short: (§1)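 6-mm disks, 20 μg compound each, air-dried, on agar seeded with β-lactamase-positive MRSA isolate; inhibition zone diameter in mm at 24 h, average of triplicates.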

MRSA USF657 = experiment: Kirby-Bauer agar disk diffusion; assay type: cell-based, Staphylococcus aureus; set-up: Kirby-Bauer Disc Diffusion Test Results: unit not given here; details: for zone of inhibition at 20 µg/disc: Staphylococcus aureus, MRSA
In short: as §1

MRSA USF658 = experiment: Kirby-Bauer agar disk diffusion; assay type: cell-based, Staphylococcus aureus; set-up: Kirby-Bauer Disc Diffusion Test Results: unit not given here; details: for zone of inhibition at 20 µg/disc: Staphylococcus aureus, MRSA
In short: as §1

[1] = system: S. saprophyticus (ATCC 3552); experiment: Kirby-Bauer agar disk diffusion; assay type: cell-based, Staphylococcus saprophyticus; details: 6-mm disks, 20 μg test compound
In short: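 Agar disk diffusion used 6-mm air-dried disks carrying 20 μg of compound. Values are mean diameters (mm) of the growth-inhibition zone at 24 h, from triplicate experiments. S. epidermidis and S. simulans were clinical isolates.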

N. gonorrhoeae = experiment: Kirby-Bauer agar disk diffusion; assay type: cell-based, Neisseria gonorrhoeae; details: Neisseria gonorrhoeae; Table 1; 6-mm disks, 20 μg test compound, 24 h, triplicate; β-lactamase positive; read-out: zone of growth inhibition, average diameter
Experimental: In this study, a selection of N-methylthio-substituted β-lactams are examined for antimicrobial activity by the Kirby-Bauer disk diffusion method on agar plates. A variety of common Gram-positive and Gram-negative bacteria are tested, including clinical isolates of methicillin-resistant Staphylococcus aureus (MRSA).
Compound susceptibility measurements are obtained from agar disk diffusion experiments using 6-mm air-dried disks impregnated with 20 μg of the test compound. The values correspond to the average diameters in mm (triplicate experiments) for the zone of growth inhibition observed after 24 h. Staphylococcus aureus (ATCC 25923) and β-lactamase-producing strains of methicillin-resistant Staphylococcus aureus (labeled as MRSA USF652-659) are obtained from Lakeland Regional Medical Center, Lakeland, Fla. Staphylococcus epidermidis, Staphylococcus simulans, Staphylococcus simulans, and Microcossus luteus are clinical isolates from University of South Florida Medical Clinic. Nieserria gonnorhoeae (β-lactamase positive) is obtained from the Tampa Branch State Laboratory. PenG is penicillin G (potassium salt). Table 1 provides the zones of growth inhibition that are observed after 24 hours using the lactams of FIGS. 1A-1I (designated A-I, respectively).

MRSA strains = experiment: MIC by agar dilution; assay type: cell-based, Staphylococcus aureus; details: Staphylococcus aureus, MRSA, read-out: Minimum inhibitory concentration (MIC)
Excerpt: However, the N-alkylthio substituent is required, since reduction to the N—H analogue completely destroys the biological activity.

[2] = system: cultures of S. aureus and MRSA; experiment: electron microscopy of cell morphology; assay type: cell-based, Staphylococcus aureus; details: Example 1; electron microscopy, high magnification
Excerpt: The structure-bioactivity patterns observed for these N-thiolated lactams are highly atypical for a β-lactam antibiotic. The compounds are lipohilic and devoid of the typical acidic ring functionality required for recognition by the penicillin binding proteins. The implication that the lactams set forth in FIGS. 1A-1I are not acting in the same manner or on the same enzymes as the traditional β-lactam drugs is supported by electron microscopy experiments, which confirm that cell morphology is unaffected by the lactam of FIG. 1D (Greenwood, D. et al. Science, 1969, 163:1076).
(§2) In fact, only small isolated colonies of surviving cells can be found, all of which appear perfectly normal in size, shape, smoothness, and clustering behavior. […] Pulse radiolabeling experiments indicate that the lactam of FIG. 1D blocks the bacterial uptake of ^3H-uridine and ^3H-leucine at low (MIC) levels (Lim, D. V. et al. Microbiology, 1977, 33:328; Champney, W. S. and C. G. Tober Antimicrob. Agents and Chemother., 2000, 44:1413).
Light microscopy and scanning electron microscopy experiments have enabled us to look for cell wall damage in cultures of S. aureus and MRSA grown in the presence of N-methylthio lactam (FIG. 11F) over a range of different concentrations and cell growth conditions. […] Those cells that survive the treatment appear normal (coccal) and fully mature.

MRSA cells = experiment: light microscopy after Gram staining; assay type: cell-based, Staphylococcus aureus
Excerpt: as §2
(FIGS. 14A-14C) S. aureus is a Gram-positive microorganism, and thus reacts with Gram stain to produce a purple coloration due to binding of the stain to the peptidoglycan. 100% of MRSA cells grown either in the absence or presence of the lactam of FIG. 11F take on a purple color when Gram stained (top and center images, next page). In contrast, for MRSA cells treated with penicillin G or vancomycin (cell wall synthesis inhibitors), only about 30% of the cells are Gram-stained purple, with the remainder of the cells appearing pink (bottom image, next page) due to morphologically altered walls. This is strong evidence that the N-methylthio lactams are not affecting late stage events in cell wall biosynthesis.

[3] = Table 1, 6-mm disks, 20 μg test compound, 24 h, triplicate, read-out: zone of growth inhibition, average diameter
[4] = Table 4, 20 μg disk loading, read-out: Zones of Inhibition
[5] = Table 6, 20 μg disk loading, read-out: The Zone of Inhibition
[6] = Table 3, 6-mm disks, 20 μg test compound, 24 hours
[7] = Table 5, beta-lactamase producing strain

`CC1(C)S[C@@H]2[C@H](NC(=O)Cc3ccccc3)C(=O)N2[C@H]1C(=O)O` [PenG, penicillin G, reference compound] gave a zone of inhibition at 20 µg/disc (MRSA USF652; [3]) of 8 mm, a zone of inhibition at 20 µg/disc (MRSA USF652; [4]) of 8 mm and a zone of inhibition at 20 µg/disc (MRSA USF652; [5]) of 8 mm. For the same compound, the “zone of growth inhibition, average diameter” value (shortened to “zone of growth inhibition”) (MRSA USF652; [6]) was 8 mm, the “Kirby-Bauer Disc Diffusion Test Results” value (MRSA USF652; [7]) was 8 and the zone of inhibition at 20 µg/disc (MRSA USF657; [3]) was 12 mm. For the same compound, the zone of inhibition at 20 µg/disc (MRSA USF657; [4]) was 12 mm, the zone of inhibition at 20 µg/disc (MRSA USF657; [5]) was 12 mm and the “zone of growth inhibition” value (MRSA USF657; [6]) was 12 mm. For the same compound, the “Kirby-Bauer Disc Diffusion Test Results” value (MRSA USF657; [7]) was 12, the zone of inhibition at 20 µg/disc (MRSA USF658; [3]) was 19 mm and the zone of inhibition at 20 µg/disc (MRSA USF658; [4]) was 19 mm. The zone of inhibition at 20 µg/disc (MRSA USF658; [5]) was 18 mm, the “zone of growth inhibition” value (MRSA USF658; [6]) was 19 mm and the “Kirby-Bauer Disc Diffusion Test Results” value (MRSA USF658; [7]) was 18. The zone of inhibition at 20 µg/disc ([1]; Staphylococcus saprophyticus, ATCC3552, Table 1, 24 h, triplicate, read-out: zone of growth inhibition, average diameter) was 30 mm, the “zone of growth inhibition” value ([1]; Table 3, 24 hours) was 30 mm and the zone of inhibition at 20 µg/disc (N. gonorrhoeae) was 0 mm. For the same compound, the MIC (MRSA strains) was over 64 µg/mL, the cell morphology [2] was “wrinkled, deformed, or even sheared” and the “coloration upon Gram staining” value (MRSA cells; Example 1) was “pink coloration”. For the same compound, the “cells Gram-stained purple” value (MRSA cells; Example 5, MRSA cells grown in presence of the substance) was “about 30%”.
